Results: US20110028566A1, “COMPOSITIONS AND PRODUCTS CONTAINING CYCLOALIPHATIC DIOL ANTIMICROBIAL AGENTS AND METHODS OF USING THE COMPOSITIONS AND PRODUCTS” (EASTMAN CHEMICAL COMPANY, priority 2009, published 2011)
“Also recorded” adds a separate entry of the source.

Legend:
[1] = test system: panel of five strains of microorganisms; assay: MIC comparison of 1,1- and 1,4-CHDM (Example 6), statements over the panel; assay type: cell-based; conditions: MIC at 24, 48 and 72 hours
Protocol: The antimicrobial activities of 1,4-cyclohexanedimethanol (1,4-CHDM) and 1,1-cyclohexanedimethanol (1,1-CHDM) have been determined. […] MICs were individually calculated for three consecutive days with both 1,1-cyclohexanedimethanol and the 31% cis:69% trans mixture of 1,4-cyclohexanedimethanol. Both compounds were evaluated against a panel of five strains of microorganisms.
Strains P. aeruginosa, C. albicans, E. coli, A. niger and S. aureus were purchased from the American Type Culture Collection (Manassas, Va.). […] Absorbance measurements were taken with a TECAN GENios Pro microplate reader. […]
Each plate was covered and incubated at the appropriate temperature and turbidity as a measure of cell density was determined via absorbance measurement at 612 nm using a microplate reader. […] The raw data was exported into an Excel spreadsheet and the MIC values were determined and expressed as wt %. The absorbance of each inoculated CHDM well was retrieved by first subtracting out the average reading for each uninoculated well, then by comparison to a positive threshold to determine positive or negative status for growth. The positive threshold was calculated by multiplication of the average absorbance for the inoculated media-only wells by 0.05. The MIC was determined as the lowest test concentration resulting in all three replicate wells displaying values below the positive threshold.

[2] = Solubility in aqueous growth media; assay type: physicochemical
From the text: Final results have been summarized below in Table 59.

[3] = test system: Staphylococcus aureus ATCC 25923; assay: MIC determination and synergy testing (Kull synergy index), microplate; assay type: cell-based; conditions: MP: MIC alone (QB) or conc. in combination with CHDM (b), plate 166D
Protocol: (§1) The test cultures are listed in Table 7 along with the incubation temperatures used for growth and minimum inhibitory concentration (MIC) testing. […] C. albicans was cultured in Sabouraud dextrose broth (SDB) for approximately 44-52 hours for preparation of inoculum. A. niger was cultured on Sabouraud dextrose agar (SDA) for 3-4 days until there was confluent growth and visible spore formation. Spores were harvested from the SDA plates by flooding the surface of the plate with 5-10 mL of phosphate-buffered saline (PBS) and gently spreading the liquid across the surface of the plate with a sterile T-shaped plastic spreader (Copan Diagnostics) until there was a well-mixed suspension of spores. The resulting spore suspension was collected using a serological pipette and stored at 2-8° C. until use.
(§2) Inoculum concentration was determined by dilution plating of the cultures or spore suspension. A serial dilution in PBS was made to 10^−8 for the bacterial cultures or 10^−5 for the fungal cultures. Fifty or 100 μL of the final dilution was spread on two Trypticase-soy agar (TSA) plates for bacteria or two SDA plates for fungi. After 24 to 48 hours plates were counted and the concentrations used in each experiment were calculated.
(§3) The antimicrobial agents tested for synergy along with the respective diluents and working stock solution concentrations are shown below. For determination of MIC ranges, individual antimicrobial agent stock solutions were added to sterile medium to yield the highest level test concentrations, and then serially diluted in the medium to prepare the range of test concentrations. For synergy testing individual test concentrations were prepared in sterile medium, and then blended to form the desired combinations.
(§4) MICs were determined using a high-throughput microplate method. Individual antimicrobial agents were added to TSB (pH 7.3) for bacterial testing or SDB (pH 5.6) for fungal testing at the highest concentration to be tested. A serial dilution series was prepared at a dilution ratio of 1:1.3333 such that a one log range was covered in nine dilutions. Two-hundred microliters of the diluted antimicrobial agents were dispensed into four wells each of a sterile, 96-well, flat-bottom microplate (Nalge Nunc International). Four additional wells of the highest concentration were dispensed to serve as uninoculated high-level controls. Eight additional wells containing only broth medium were also prepared, four to serve as negative controls and four as positive controls. Three wells of each antimicrobial agent dilution were inoculated with one of the test strains in Table 7. The final well of each antimicrobial agent dilution was left uninoculated to serve as a control (and means of compensating) for any absorbance/turbidity due to the test compounds.
(§5) Microplates were inoculated using the cultures or spore suspensions prepared as described above. The S. aureus cultures were used undiluted, while the E. coli and P. aeruginosa cultures were used either undiluted or after a 1:2 dilution in sterile TSB. The C. albicans cultures were used either undiluted or following a 2-fold concentration by centrifugation. One of two means of inoculation was used to deliver a final concentration of approximately 10^5 colony-forming units (CFU)/mL of C. albicans, 10^5 spores/mL of A. niger, or 10^6 CFU/mL of bacteria. The primary method used a stainless steel pin replicator (Nalge Nunc International) mounted on a hand-operated bench-top press (Schmidt Technology Corporation) fitted with a custom-built microplate holder to dispense one microliter of each inoculum from a “master” plate containing 50-100 μL of culture into the wells of the test plate. The pin replicator was sterilized before and between inoculations by immersing in ethanol and flaming. The alternative method of inoculation was by directly pipetting 20 μL of a 1:20 dilution of each culture or spore suspension into the appropriate wells of the test plates.

[4] = test system: Pseudomonas aeruginosa ATCC 27853; assay: as above; assay type: cell-based; conditions: MP: MIC alone (QB) or conc. in combination with CHDM (b); plate 146E; day 1
Protocol: as §1, §2, §3, §4, §5

[5] = test system: Aspergillus niger ATCC 16404; assay: as above; assay type: cell-based; conditions: A. niger; plate 154C; day 3; MP and CHDM
Protocol: as §1, §2
The A. niger spore suspensions were concentrated to a level of 1-2×10^8 spores/mL by centrifugation and resuspension in a portion of the resulting supernatant.
as §3, §4
Microplates were inoculated using the cultures or spore suspensions prepared as described above. The S. aureus cultures were used undiluted, while the E. coli and P. aeruginosa cultures were used either undiluted or after a 1:2 dilution in sterile TSB. The C. albicans cultures were used either undiluted or following a 2-fold concentration by centrifugation. One of two means of inoculation was used to deliver a final concentration of approximately 10^5 colony-forming units (CFU)/mL of C. albicans, 10^5 spores/mL of A. niger, or 10^6 CFU/mL of bacteria. The primary method used a stainless steel pin replicator (Nalge Nunc International) mounted on a hand-operated bench-top press (Schmidt Technology Corporation) fitted with a custom-built microplate holder to dispense one microliter of each inoculum from a “master” plate containing 50-100 μL of culture into the wells of the test plate. The pin replicator was sterilized before and between inoculations by immersing in ethanol and flaming. […]

Aspergillus niger = assay: Test for adequate preservation in skin cream formulation (microorganism counts); assay type: cell-based; conditions: skin cream emulsion pH 6.75; concentration in label
Protocol: (§6) A test for adequate preservation was carried out in accordance with the European Pharmacopea (6.0) and United States Pharmacopea (5.1). The testing consisted of the inoculation of a skin cream formulation serving as an emulsion substrate. The skin cream formulation having a pH of 6.75 was as follows: […]
(§7) This skin cream was the emulsion substrate, which formed the base for all further experimentation.
(§8) For Examples 3.1 through 3.10, 390.0 g cream were weighed into a 600-ml beaker. The cream was stirred at room temperature while adding the ingredients specified in Table 51. Each sample was stirred for 2 hours, then placed in the refrigerator until inoculated.
(§9) For Examples 3.11 and 3.12, 179.4 g cream were weighed into a 400-ml beaker. The cream was stirred at room temperature while adding the specified ingredients.
(§10) The samples of Examples 3.1 through 3.10 were challenged with specific organisms (see Table 51) to produce a contamination of between 1.0×10^5 cfu/g and 1.0×10^6 cfu/g. The actual inoculation counts resulting from these challenges were immediately determined by diluting in sterile buffered water and (spread plate method) plating for enumeration.
(§11) Challenge organisms were prepared in Mueller-Hinton broth, allowed to grow for 72 hours at 35° C.+/−2° C., centrifuged at 2500 rpm for 5 minutes, and the supernatant broth was removed. The microbial pellet was then re-diluted with sterile buffered water to a turbidity that matched previous 1.0×10^8 cfu/g concentrations of that organism's specific growth curve.
(§12) The test emulsions were maintained within a specific temperature range optimal for the organisms; 35° C.+/2° C. for the bacteria and 22° C.+/−2° C. for the fungi, for the first three days. They were kept at ambient room temperature for the subsequent time periods.
(§13) Subculture samples of approximately 1 gram were taken for counts at 7, 14, and 30 days and incubated under optimal conditions and nutrition for no less than 5 days. Subcultures were diluted 1:2, 1:10, 1:100, . . . , 1:10,000 and plated using the spread plate method onto Plate Count Agar and onto SAB Dextrose Agar for the Candida and Aspergillus species; and incubated as follows: 35° C.+/−2° C. for the Plate Count Agar and 22° C.+/−2° C. for the SAB Dextrose plates of Candida albicans and Aspergillus niger. Negative results were not reported before 7 days incubation, and counts were performed after no less than 5 days incubation. Because of the high viscosity of the test emulsion, at least a 1:2 dilution was required to perform the spread plate subcultures. 0-30 counts represent a 1 to 2 dilution, numbers […] a 1:10 dilution; and the rest represent dilutions of 1:100, 1:1000, or 1:10,000. […]

Candida albicans = assay: as above; assay type: cell-based; conditions: skin cream emulsion pH 6.75; concentration in label
Protocol: as §6, §7, §8, §9, §10, §11, §12, §13

| QB/b: concentration of MP (MIC alone, or in the combination at an inhibitory concentration) [5] | SMILES | Antimicrobial efficacy (MIC) compared with 1,4-CHDM (in words) [1] | Antimicrobial efficacy (MIC) compared with 1,4-CHDM (in words) ([1]; listed as 1,1-cyclohexanedimethanol) | Solubility [2] | QB/b ([3]; day 1) | QB/b ([3]; day 2) | QB/b [4] | SI (synergy index) [5] | Antimicrobial activity against Aspergillus niger in skin cream (in words) (Aspergillus niger) | Antimicrobial activity against Candida albicans in skin cream (in words) (Candida albicans) |
| --- | --- | --- | --- | --- | --- | --- | --- | --- | --- | --- |
|  | OCC1(CO)CCCCC1 [1,1-CHDM, 1,1-cyclohexanedimethanol] | significant improvement in efficacy over 1,4-CHDM; also recorded: lower MIC values; also recorded: improved efficacy over 1,4-CHDM | measurable increase in antimicrobial efficacy over that of 1,4-cyclohexanedimethanol; also recorded: Antimicrobial efficacy increased against four of the five test organisms | ≤ 2.25 % (w/v) |  |  |  |  |  |  |
| 0.050 weight percent | COC(=O)c1ccc(O)cc1 [MP, Methylparaben, reference compound] |  |  |  | 0.23 | 0.23 | 0.14 | 1.00 | not at this low concentration | not at this low concentration |
